Laboratory results as given in patent US20230270718A1, “METHODS OF TREATING DIABETIC KIDNEY DISEASE” (Chinook Therapeutics, Inc., priority 2020, published 2023).
Like-named read-outs stand apart in the source and are kept apart here.

Experiments:
DKD patients [1] = test: SONAR study, six week enrichment period, analyses by concomitant SGLT-2 inhibitor use; type: in vivo, human; set-up: key to UACR Final, Median / UACR Change, Median: UACR values in mg/g; conditions: for B-type Natriuretic Peptide, change: geometric mean; for UACR Change, Mean (SD) / UACR Change, Median / UACR Final, Mean (SD) / UACR Final, Median: enrichment atrasentan
Description: A double-blind, randomized, placebo-controlled trial of DKD patients was conducted at 689 sites in 41 countries. The trial was conducted in two phases, an enrichment period and a double-blind treatment period. For the enrichment period, eligible patients were 18-85 years old with type 2 diabetes, an estimated glomerular filtration rate (eGFR) of 25-75 mL/min per 1.73 m^2 of body surface area, a urine albumin-to-creatinine ratio (UACR) of 300-5000 mg/g, a serum albumin of at least 25 g/L, a brain natriuretic peptide (BNP) concentration (level) of no more than 200 pg/mL, a serum potassium of at least 3 to 5 mmol/L, and systolic blood pressure of 110-180 mm Hg. The patients were required to receive a stable, recommended or maximally tolerated dose of an ACE inhibitor or ARB for at least four weeks prior to beginning the enrichment period. Patients also received a diuretic prior to beginning the enrichment period. Exclusion criteria included: a diagnosis of or previous hospital admission for heart failure, a history of severe peripheral or facial edema, diagnosis of type 1 diabetes, history of pulmonary hypertension, pulmonary fibrosis, or any lung diseases requiring oxygen therapy, and known non-diabetic kidney disease. See Heerspink et al., Lancet 393:1937-1947 (2019).
See Heerspink et al., Diabetes Obes Metab., 20:1829-1835 (2018). 42 responder patients and 9 patients in the non-responder group had used a SGLT-2 inhibitor at the start of enrichment. […] It was concluded that the UACR reduction was consistent in both groups.
Referring to the following Table 1, case-control matched cohort data from the study is shown.
SGLT-2 inhibitors included canagliflozin (N=6), empagliflozin (N=4), dapagliflozin (N=3), and luseogliflozin (N=1).
Change in body weight was used as a surrogate for fluid retention. See, e.g., Hoekman, et al., Clin. J. Am. Soc. Nephrol. 2013; 9(3):490-498. The change in BNP was monitored as an additional surrogate for fluid retention (each 1 kg increase in body weight during the enrichment period was associated with a 7.3% increase in BNP (p-value<0.001)).

DKD patients [2] = conditions: enrichment period, cited from earlier work
DKD patients [3] = conditions: cited from earlier work
[4] = Table 2, case-control matched cohort (N = 14 vs N = 42), enrichment period
[5] = Table 5, combination matched cohort (N = 14 vs N = 42), enrichment period
[6] = Table 6, combination (N = 14) vs all atrasentan alone subjects (N = 5093), enrichment period
[7] = No prior or concomitant SGLT2, N 4768
[8] = Prior and concomitant sGLT2, N 5
[9] = atrasentan group, treatment period
[10] = of 1,325 patients, atrasentan 0.75 mg orally daily
[11] = of 1,325 responders, atrasentan 0.75 mg orally daily, median follow-up 2.2 years

Which “Change in B-type Natriuretic Peptide (fluid retention)” value (DKD patients [1]; [4]) does the source give for `CCCCN(CCCC)C(=O)CN1C[C@H](c2ccc3c(c2)OCO3)[C@@H](C(=O)O)[C@@H]1c1ccc(OC)cc1` [Atrasentan, (2R,3R,4S)-4-(1,3-benzodioxol-5-yl)-1-[2-(dibutylamino)-2-oxoethyl]-2-(4-methoxyphenyl)pyrrolidine-3-carboxylic acid] here?
Its value is 6.9%.

What about the “Change in Systolic Blood Pressure (renal efficacy)” value (DKD patients [1]; [4]) of the same compound?
Its value is −9.2 mmHg.

And the “Change in body weight (fluid retention)” value (DKD patients [1]; [4])?
The value was 1.1 kg.

And the “Change in eGFR (renal efficacy)” value (DKD patients [1]; [4])?
Its value is −0.6 ml/min/1.73 m^2.

What about the “Change in hematocrit (fluid retention)” value (DKD patients [1]; [4]) of the same compound?
Its value is −2.5%.

What about the “Change in hemoglobin (fluid retention)” value (DKD patients [1]; [4]) of the same compound?
The value was -0.9 g/dL.

What about the “Body weight, change” value (DKD patients [1]; [5]) of the same compound?
Its value is 0.6 kg.

And the “Systolic Blood Pressure, change” value (DKD patients [1]; [5])?
Its value is −6.7 mmHg.

And the “eGFR, change” value (DKD patients [1]; [5])?
Its value is −2.1 ml/min/1.73 m^2.

What about the “B-type Natriuretic Peptide, change” value (DKD patients [1]; [5]) of the same compound?
The value was 5.1%.

And the “Body weight, change” value (DKD patients [1]; [6])?
Its value is 0.6 kg.

What about the “Systolic Blood Pressure, change” value (DKD patients [1]; [6]) of the same compound?
The value was −4.7 mmHg.

And the “eGFR, change” value (DKD patients [1]; [6])?
Its value is −1.0 ml/min/1.73 m^2.

And the “B-type Natriuretic Peptide, change” value (DKD patients [1]; [6])?
The value was 8.3%.

What about the “body weight increased by” value (DKD patients [1]; after six weeks, matched cohort, atrasentan alone) of the same compound?
The value was 0.6 kg.

What about the “UACR Change, Mean (SD)” value (DKD patients [1]; Concomitant sGLT2 only, N 64) of the same compound?
The value was −469.92 (680.739).

What about the “UACR Change, Median” value (DKD patients [1]; Concomitant sGLT2 only, N 64) of the same compound?
The value was −311.00.

What about the “UACR Final, Mean (SD)” value (DKD patients [1]; Concomitant sGLT2 only, N 64) of the same compound?
Its value is 809.47 (956.422).

What about the “UACR Final, Median” value (DKD patients [1]; Concomitant sGLT2 only, N 64) of the same compound?
Its value is 437.50.

What about the “UACR Change, Mean (SD)” value (DKD patients [1]; [7]) of the same compound?
The value was −365.00 (1213.365).

What about the “UACR Change, Median” value (DKD patients [1]; [7]) of the same compound?
The value was −257.00.

And the “UACR Final, Mean (SD)” value (DKD patients [1]; [7])?
The value was 891.95 (1352.518).

What about the “UACR Final, Median” value (DKD patients [1]; [7]) of the same compound?
Its value is 540.16.

And the “UACR Change, Mean (SD)” value (DKD patients [1]; Prior SGLT2 only, N 6)?
Its value is −97.80 (194.266).

What about the “UACR Change, Median” value (DKD patients [1]; Prior SGLT2 only, N 6) of the same compound?
Its value is −101.00.

And the “UACR Final, Mean (SD)” value (DKD patients [1]; Prior SGLT2 only, N 6)?
Its value is 1457.19 (1448.751).

And the “UACR Final, Median” value (DKD patients [1]; Prior SGLT2 only, N 6)?
The value was 939.56.

What about the “UACR Change, Mean (SD)” value (DKD patients [1]; [8]) of the same compound?
Its value is −109.71 (366.699).

What about the “UACR Change, Median” value (DKD patients [1]; [8]) of the same compound?
Its value is −261.00.

And the “UACR Final, Mean (SD)” value (DKD patients [1]; [8])?
The value was 379.37 (556.751).

And the “UACR Final, Median” value (DKD patients [1]; [8])?
Its value is 136.00.

What about the “change in UACR from baseline” value (DKD patients [2]; non-responders, with concomitant SGLT-2 inhibitor use) of the same compound?
The value was “+10.4%”.

What about the “change in UACR from baseline” value (DKD patients [2]; non-responders, without concomitant SGLT-2 inhibitor use) of the same compound?
Its value is −1.3%.

What about the “change in UACR from baseline” value (DKD patients [2]; responders, with concomitant SGLT-2 inhibitor use) of the same compound?
Its value is −53.2%.

What about the “change in UACR from baseline” value (DKD patients [2]; responders, without concomitant SGLT-2 inhibitor use) of the same compound?
The value was −48.8%.

What about the “fluid retention and anemia adverse events” value (DKD patients [3]; atrasentan group compared with placebo group) of the same compound?
The value was “more frequent”.

And the “patients who died, number” value (DKD patients [3]; [9])?
The value was 58 patients.

And the “patients who died, percent” value (DKD patients [3]; [9])?
The value was 4.4%.

And the “hospital admission for heart failure, number of patients” value (DKD patients [3]; [10])?
The value was 47 patients.

What about the “hospital admission for heart failure, percent of patients” value (DKD patients [3]; [10]) of the same compound?
Its value is 3.5%.

What about the “patients with a primary composite renal endpoint event (doubling of serum creatinine or ESRD), number” value (DKD patients [3]; [11]) of the same compound?
Its value is 79 patients.

And the “patients with a primary composite renal endpoint event (doubling of serum creatinine or ESRD), percent” value (DKD patients [3]; [11])?
The value was 6.0%.
